One test relates to Digitaria sanguinalis. Put plainly: Herbicidal activity against Digitaria sanguinalis (hairy crabgrass) assessed as growth inhibition at 150 g/ha. Format: functional, organism-based.
Another test concerns Poa annua. Put plainly: Herbicidal activity against Poa annua assessed as growth inhibition at 150 g/ha. It is filed as functional, organism-based.
The test system of a further test is Amaranthus retroflexus. Put plainly: Herbicidal activity against Amaranthus retroflexus assessed as growth inhibition at 150 g/ha. Format: functional, organism-based.
The subject of another test is Eclipta prostrata. Put plainly: Herbicidal activity against Eclipta prostrata assessed as growth inhibition at 150 g/ha. Particulars: for inhibition of growth at 150 g/ha: read-out: GI. Format: functional.
A further test relates to Brassica juncea. Put plainly: Herbicidal activity against Brassica juncea assessed as growth inhibition at 150 g/ha. It is filed as functional, organism-based.
A further test has as its system Echinochloa crus-galli. Kind of test: Herbicidal activity against Echinochloa crus-galli (barnyard grass) assessed as growth inhibition at 150 g/ha. It is filed as functional, organism-based.

Active and inactive are the calls of the source. The calls are words filed in the database; no cut-off is given here.

On to `CCS(=O)(=O)Nc1cc(-n2nc(C)n(Cc3ccccc3N(OC)C(=O)OC)c2=O)c(F)cc1Cl`, for which the “growth inhibition (GI)” value in the test with Digitaria sanguinalis, in the test on Poa annua, in the test with Amaranthus retroflexus, in the test with Brassica juncea and with Echinochloa crus-galli was “inactive” each time. The inhibition of growth at 150 g/ha in the test on Eclipta prostrata was found to be 70%.

Consider `CO/C=C(/C(=O)OC)c1ccccc1Cn1c(C)nn(-c2cc(NS(C)(=O)=O)c(Cl)cc2Cl)c1=O`, for which the “growth inhibition (GI)” value in the test on Digitaria sanguinalis, with Poa annua, with Amaranthus retroflexus, in the test on Eclipta prostrata, in the test on Brassica juncea and in the test with Echinochloa crus-galli was “inactive” each time.

For `CCS(=O)(=O)Nc1cc(-n2nc(C)n(Cc3ccccc3N(OC)C(=O)OC)c2=O)c(Cl)cc1Cl`, the “growth inhibition (GI)” value in the test on Digitaria sanguinalis, in the test on Poa annua and with Echinochloa crus-galli was “Active” throughout. For the same molecule, the “growth inhibition (GI)” value in the test on Amaranthus retroflexus, with Eclipta prostrata and in the test with Brassica juncea was “inactive” in each case.

`CO/C=C(/C(=O)OC)c1ccccc1Cn1c(C)nn(-c2cc(NS(C)(=O)=O)c(Cl)cc2F)c1=O`: the “growth inhibition (GI)” value with Digitaria sanguinalis, in the test on Poa annua, with Amaranthus retroflexus, in the test with Eclipta prostrata, with Brassica juncea and with Echinochloa crus-galli was “inactive” throughout.

On to `CCS(=O)(=O)Nc1cc(-n2nc(C)n(Cc3ccccc3/C(=C\OC)C(=O)OC)c2=O)c(Cl)cc1Cl`, for which the “growth inhibition (GI)” value with Digitaria sanguinalis, in the test on Poa annua, with Amaranthus retroflexus, in the test with Eclipta prostrata, with Brassica juncea and in the test on Echinochloa crus-galli was “inactive” each time.

Turning to `CO/C=C(/C(=O)OC)c1ccccc1Cn1c(C)nn(-c2cc(NS(=O)(=O)c3ccccc3)c(Cl)cc2Cl)c1=O`, the “growth inhibition (GI)” value with Digitaria sanguinalis, with Poa annua, in the test on Amaranthus retroflexus, in the test with Eclipta prostrata, in the test with Brassica juncea and with Echinochloa crus-galli was “inactive” each time.

For `CO/N=C(/C(=O)OC)c1ccccc1Cn1c(C)nn(-c2cc(NS(C)(=O)=O)c(Cl)cc2F)c1=O`, the “growth inhibition (GI)” value with Digitaria sanguinalis, in the test with Poa annua, in the test with Amaranthus retroflexus, in the test on Eclipta prostrata, in the test on Brassica juncea and in the test with Echinochloa crus-galli was “inactive” throughout.

As for `CO/N=C(/C(=O)OC)c1ccccc1Cn1c(C)nn(-c2cc(NS(C)(=O)=O)c(Cl)cc2Cl)c1=O`, the “growth inhibition (GI)” value with Digitaria sanguinalis, with Poa annua, in the test on Amaranthus retroflexus, in the test with Eclipta prostrata, in the test with Brassica juncea and in the test with Echinochloa crus-galli was “inactive” throughout.

With `CO/C=C(/C(=O)OC)c1ccccc1Cn1c(C)nn(-c2cc(NS(=O)(=O)c3ccccc3)c(Cl)cc2F)c1=O`, the “growth inhibition (GI)” value with Digitaria sanguinalis, in the test with Poa annua, in the test on Amaranthus retroflexus, in the test with Eclipta prostrata, with Brassica juncea and in the test on Echinochloa crus-galli was “inactive” throughout.

Take `COC(=O)N(OC)c1ccccc1Cn1c(C)nn(-c2cc(NS(C)(=O)=O)c(Cl)cc2F)c1=O`: the “growth inhibition (GI)” value in the test with Digitaria sanguinalis, with Poa annua, with Amaranthus retroflexus, in the test with Brassica juncea and in the test on Echinochloa crus-galli was “inactive” throughout. Further, the inhibition of growth at 150 g/ha in the test with Eclipta prostrata came to 70%.

As to `CO/N=C(/C(=O)OC)c1ccccc1Cn1c(C)nn(-c2cc(NS(=O)(=O)c3ccccc3)c(Cl)cc2F)c1=O`, the “growth inhibition (GI)” value with Digitaria sanguinalis, with Poa annua, with Amaranthus retroflexus, with Eclipta prostrata, in the test with Brassica juncea and in the test with Echinochloa crus-galli was “inactive” in each case.

On to `COC(=O)N(OC)c1ccccc1Cn1c(C)nn(-c2cc(NS(C)(=O)=O)c(Cl)cc2Cl)c1=O`, for which the “growth inhibition (GI)” value with Digitaria sanguinalis, in the test with Poa annua, in the test on Amaranthus retroflexus, in the test on Eclipta prostrata, in the test with Brassica juncea and in the test with Echinochloa crus-galli was “inactive” each time.

`CCS(=O)(=O)Nc1cc(-n2nc(C)n(Cc3ccccc3/C(=C\OC)C(=O)OC)c2=O)c(F)cc1Cl`: the “growth inhibition (GI)” value in the test with Digitaria sanguinalis, in the test with Poa annua, with Amaranthus retroflexus, in the test with Eclipta prostrata, in the test on Brassica juncea and in the test on Echinochloa crus-galli was “inactive” in each case.

Take `COC(=O)N(OC)c1ccccc1Cn1c(C)nn(-c2cc(NS(=O)(=O)c3ccccc3)c(Cl)cc2Cl)c1=O`: the “growth inhibition (GI)” value in the test with Digitaria sanguinalis, in the test with Poa annua and with Echinochloa crus-galli was “Active” throughout. In addition, the “growth inhibition (GI)” value with Amaranthus retroflexus, in the test with Eclipta prostrata and in the test with Brassica juncea was “inactive” each time.

In the case of `CO/N=C(/C(=O)OC)c1ccccc1Cn1c(C)nn(-c2cc(NS(=O)(=O)c3ccccc3)c(Cl)cc2Cl)c1=O`, the “growth inhibition (GI)” value with Digitaria sanguinalis, in the test on Poa annua, in the test with Amaranthus retroflexus, in the test on Brassica juncea and in the test on Echinochloa crus-galli was “inactive” throughout. Besides, in the test on Eclipta prostrata, the inhibition of growth at 150 g/ha stood at 70%.

On to `COC(=O)N(OC)c1ccccc1Cn1c(C)nn(-c2cc(NS(=O)(=O)c3ccccc3)c(Cl)cc2F)c1=O`, for which the “growth inhibition (GI)” value in the test with Digitaria sanguinalis, with Poa annua, in the test on Amaranthus retroflexus, with Eclipta prostrata, in the test with Brassica juncea and in the test on Echinochloa crus-galli was “inactive” throughout.

`CCS(=O)(=O)Nc1cc(-n2nc(C)n(Cc3ccccc3/C(=N\OC)C(=O)OC)c2=O)c(Cl)cc1Cl`: the “growth inhibition (GI)” value in the test with Digitaria sanguinalis, in the test on Poa annua, in the test with Amaranthus retroflexus, in the test with Eclipta prostrata, in the test with Brassica juncea and with Echinochloa crus-galli was “inactive” in each case.

The values are drawn from ChEMBL document CHEMBL3045146, “Synthesis and biological activity of novel phenyltriazolinone derivatives” (2010).
